Data from US11236083B2, “Compounds and pharmaceutical compositions for modulating SGK activity, and methods thereof” (NEW ERA PHARMA, INC., priority 2016, dated 2022).

Target: T1, Sgk2 (Homo sapiens, UniProt Q9HBY8)
T1 sequence (Q9HBY8 1-367): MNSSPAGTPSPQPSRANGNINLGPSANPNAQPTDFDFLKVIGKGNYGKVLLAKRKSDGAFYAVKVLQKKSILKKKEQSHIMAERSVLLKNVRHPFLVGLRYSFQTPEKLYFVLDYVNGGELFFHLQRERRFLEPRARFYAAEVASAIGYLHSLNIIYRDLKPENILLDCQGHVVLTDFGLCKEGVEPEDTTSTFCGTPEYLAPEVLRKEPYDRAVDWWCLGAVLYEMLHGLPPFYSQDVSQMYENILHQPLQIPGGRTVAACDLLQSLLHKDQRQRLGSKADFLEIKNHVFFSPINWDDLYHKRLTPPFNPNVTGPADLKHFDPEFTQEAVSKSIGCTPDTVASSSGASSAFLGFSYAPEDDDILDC
Experiment: Enzyme based assay for SGK2 (biotinylated Akt Substrates-2 peptide, Eu3+ Cryptate/XL665 detection)
Assay type: biochemical
Conditions: 50 μM ATP; read-out: Sgk2 (50 μM ATP)
Method: (§1) 1. Enzyme Based Assays for SGK1, SGK2, SGK3, and Akt1
(§2) The kinase enzymatic reaction is carried out with a biotinylated Akt Substrates-2 peptide substrate. The phosphorylated substrate is then detected using a specific anti-phospho peptide antibody which is coupled with Eu^3+ Cryptate and XL665 conjugated with streptavidin.
(§3) Exemplary Assay Conditions
(§4) • Enzyme: ˜0.1 nM • Substrate: 0.2 μM • ATP: 50 μM and 1 mM • Mg^2+: 10 mM • Reaction time: 60 min with 50 μM ATP and 30 min with 1 mM ATP • SA-XL to Biotin: 1:10
(§5) Detailed Steps • 1. prepare the enzyme and substrate solution with the buffer from Cisbio • 2. add the enzyme and substrate solution to the diluted compound plate • 3. transfer 5 μL of compound, enzyme, and substrate mixture to an 384-well assay plate • 4. add 5 μL ATP (with Mg^2+) solution to initiate the reaction • 5. after certain time, add 10 μL of stop solution containing SA-XL and specific antibody • 6. read the plate after 2 h incubation at rt • 7. process the data using prizm software (Exemplary results are shown in FIG. 1.) 2. PK Studies Protocol

| SMILES | IC50 |
| --- | --- |
| CCOc1cc(-c2ccc(NS(=O)(=O)c3cc(OC)ccc3F)cn2)cc2[nH]nc(N)c12 | 0.075 µM |
| COc1ccc(F)c(S(=O)(=O)Nc2ccc(-c3cc4c5c(n[nH]c5c3)NC(=O)C(C)(C)O4)cc2)c1 | 0.035 µM |
| COc1ccc(F)c(S(=O)(=O)Nc2ccc(-c3cc(OCCN(C)C)c4c(N)n[nH]c4c3)cc2)c1 | 0.0091 µM |
| COc1ccc(F)c(S(=O)(=O)Nc2ccc(-c3cc(O[C@H]4CCOC4)c4c(N)n[nH]c4c3)nc2)c1 | 0.0146 µM |
| COc1ccc(F)c(S(=O)(=O)Nc2ccc(-c3cc(C)c4c(N)n[nH]c4c3)cc2)c1 | 0.0084 µM |
| COc1ccc(F)c(S(=O)(=O)Nc2ccc(-c3cc(OCC(C)(C)O)c4c(N)n[nH]c4c3)cc2)c1 | 0.0383 µM |
| CCOc1cc(-c2ccc(NS(=O)(=O)c3cc(OC)ccc3F)cc2)nc2[nH]nc(N)c12 | 0.0078 µM |

Molecules with a lower IC50, results first:

| IC50 | SMILES |
| --- | --- |
| 0.0059 µM | Cc1n[nH]c2nc(-c3ccc(NS(=O)(=O)c4cc(Cl)ccc4F)cc3)ccc12 |
| 0.0054 µM | COc1ccc(F)c(S(=O)(=O)Nc2cnc(-c3cc(OC)c4c(N)n[nH]c4c3)nc2)c1 |
| 0.005 µM | COc1ccc(F)c(S(=O)(=O)Nc2ccc(-c3cc(OC)c4c(N)n[nH]c4c3)nc2)c1 |
| 0.0042 µM | COc1ccc(F)c(S(=O)(=O)Nc2ccc(-c3cc(OCCN(C)C)c4c(N)n[nH]c4n3)cc2)c1 |
| 0.004 µM | COc1ccc(F)c(S(=O)(=O)Nc2ccc(-c3cc(O[C@@H]4CCOC4)c4c(N)n[nH]c4c3)nc2)c1 |
| 0.0035 µM | COc1ccc(F)c(S(=O)(=O)Nc2ccc(-c3cc(OCC4CNCCO4)c4cn[nH]c4n3)cc2)c1 (centres unmarked) |
| 0.0034 µM | COc1ccc(F)c(S(=O)(=O)Nc2ccc(-c3cc4c5c(n[nH]c5c3)NC(=O)CN4)cc2)c1 |
| 0.003 µM | COc1ccc(F)c(S(=O)(=O)Nc2ccc(-c3cc(OC)c4c(N)n[nH]c4n3)cc2)c1 |
| 0.002 µM | COc1ccc(F)c(S(=O)(=O)Nc2ccc(-c3cc(OCC4CNCCO4)c4c(N)n[nH]c4c3)cc2)c1 (centres unmarked) |
| 0.0018 µM | COc1ccc(Cl)c(S(=O)(=O)Nc2ccc(-c3cc(OCC4CNCCO4)c4cn[nH]c4c3)cc2)c1 (centres unmarked) |

Same assay, conditions: 1 mM ATP; read-out: Sgk2 (1 mM ATP)

| SMILES | IC50 |
| --- | --- |
| CCOc1cc(-c2ccc(NS(=O)(=O)c3cc(OC)ccc3F)cn2)cc2[nH]nc(N)c12 | 0.0198 µM |
| COc1ccc(F)c(S(=O)(=O)Nc2ccc(-c3cc4c5c(n[nH]c5c3)NC(=O)C(C)(C)O4)cc2)c1 | 0.323 µM |
| COc1ccc(F)c(S(=O)(=O)Nc2ccc(-c3cc(OCCN(C)C)c4c(N)n[nH]c4c3)cc2)c1 | 0.104 µM |
| COc1ccc(F)c(S(=O)(=O)Nc2ccc(-c3cc(O[C@H]4CCOC4)c4c(N)n[nH]c4c3)nc2)c1 | 0.0178 µM |
| COc1ccc(F)c(S(=O)(=O)Nc2ccc(-c3cc(C)c4c(N)n[nH]c4c3)cc2)c1 | 0.0715 µM |
| COc1ccc(F)c(S(=O)(=O)Nc2ccc(-c3cc(OCC(C)(C)O)c4c(N)n[nH]c4c3)cc2)c1 | 0.0393 µM |
| CCOc1cc(-c2ccc(NS(=O)(=O)c3cc(OC)ccc3F)cc2)nc2[nH]nc(N)c12 | 0.0101 µM |

Second part, the molecule after the results:

| IC50 | SMILES |
| --- | --- |
| 0.004 µM | COc1ccc(F)c(S(=O)(=O)Nc2cnc(-c3cc(OC)c4c(N)n[nH]c4c3)nc2)c1 |
| 0.0065 µM | COc1ccc(F)c(S(=O)(=O)Nc2ccc(-c3cc(OC)c4c(N)n[nH]c4c3)nc2)c1 |
| 0.04 µM | COc1ccc(F)c(S(=O)(=O)Nc2ccc(-c3cc(OCCN(C)C)c4c(N)n[nH]c4n3)cc2)c1 |
| 0.036 µM | COc1ccc(F)c(S(=O)(=O)Nc2ccc(-c3cc(O[C@@H]4CCOC4)c4c(N)n[nH]c4c3)nc2)c1 |
| 0.0098 µM | COc1ccc(F)c(S(=O)(=O)Nc2ccc(-c3cc(OCC4CNCCO4)c4cn[nH]c4n3)cc2)c1 (centres unmarked) |
| 0.0186 µM | COc1ccc(F)c(S(=O)(=O)Nc2ccc(-c3cc4c5c(n[nH]c5c3)NC(=O)CN4)cc2)c1 |
| 0.0357 µM | COc1ccc(F)c(S(=O)(=O)Nc2ccc(-c3cc(OC)c4c(N)n[nH]c4n3)cc2)c1 |
| 0.0038 µM | COc1ccc(F)c(S(=O)(=O)Nc2ccc(-c3cc(OCC4CNCCO4)c4c(N)n[nH]c4c3)cc2)c1 (centres unmarked) |
| 0.0252 µM | COc1ccc(Cl)c(S(=O)(=O)Nc2ccc(-c3cc(OCC4CNCCO4)c4cn[nH]c4c3)cc2)c1 (centres unmarked) |

Target: T2, Sgk1 (Homo sapiens, UniProt O00141)
T2 sequence (O00141 1-431): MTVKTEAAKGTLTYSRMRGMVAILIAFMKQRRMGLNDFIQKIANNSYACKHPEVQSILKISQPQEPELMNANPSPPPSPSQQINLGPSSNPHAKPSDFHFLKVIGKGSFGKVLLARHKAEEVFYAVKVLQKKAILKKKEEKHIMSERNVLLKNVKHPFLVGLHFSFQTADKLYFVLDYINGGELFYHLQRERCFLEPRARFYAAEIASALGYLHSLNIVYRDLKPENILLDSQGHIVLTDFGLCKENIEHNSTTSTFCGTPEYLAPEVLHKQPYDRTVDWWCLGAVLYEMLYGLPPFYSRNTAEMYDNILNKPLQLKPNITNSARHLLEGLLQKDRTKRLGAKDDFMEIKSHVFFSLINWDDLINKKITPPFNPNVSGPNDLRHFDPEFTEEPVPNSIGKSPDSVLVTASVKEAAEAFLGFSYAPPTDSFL
Experiment: Enzyme based assay for SGK1 (biotinylated Akt Substrates-2 peptide, Eu3+ Cryptate/XL665 detection)
Assay type: biochemical
Conditions: 50 μM ATP; read-out: Sgk1 (50 μM ATP)
Method: as §1, §2, §3, §4, §5

| SMILES | IC50 |
| --- | --- |
| CCOc1cc(-c2ccc(NS(=O)(=O)c3cc(OC)ccc3F)cn2)cc2[nH]nc(N)c12 | 0.0141 µM |
| COc1ccc(F)c(S(=O)(=O)Nc2ccc(-c3cc4c5c(n[nH]c5c3)NC(=O)C(C)(C)O4)cc2)c1 | 0.0776 µM |
| COc1ccc(F)c(S(=O)(=O)Nc2ccc(-c3cc(OCCN(C)C)c4c(N)n[nH]c4c3)cc2)c1 | 0.027 µM |
| COc1ccc(F)c(S(=O)(=O)Nc2ccc(-c3cc(O[C@H]4CCOC4)c4c(N)n[nH]c4c3)nc2)c1 | 0.109 µM |
| COc1ccc(F)c(S(=O)(=O)Nc2ccc(-c3cc(C)c4c(N)n[nH]c4c3)cc2)c1 | 0.0215 µM |
| COc1ccc(F)c(S(=O)(=O)Nc2ccc(-c3cc(OCC(C)(C)O)c4c(N)n[nH]c4c3)cc2)c1 | 0.0361 µM |
| CCOc1cc(-c2ccc(NS(=O)(=O)c3cc(OC)ccc3F)cc2)nc2[nH]nc(N)c12 | 0.0162 µM |

The remaining lines, values ahead:

| IC50 | SMILES |
| --- | --- |
| 0.0121 µM | Cc1n[nH]c2nc(-c3ccc(NS(=O)(=O)c4cc(Cl)ccc4F)cc3)ccc12 |
| 0.0179 µM | COc1ccc(F)c(S(=O)(=O)Nc2cnc(-c3cc(OC)c4c(N)n[nH]c4c3)nc2)c1 |
| 0.013 µM | COc1ccc(F)c(S(=O)(=O)Nc2ccc(-c3cc(OC)c4c(N)n[nH]c4c3)nc2)c1 |
| 0.045 µM | COc1ccc(F)c(S(=O)(=O)Nc2ccc(-c3cc(OCCN(C)C)c4c(N)n[nH]c4n3)cc2)c1 |
| 0.0085 µM | COc1ccc(F)c(S(=O)(=O)Nc2ccc(-c3cc(O[C@@H]4CCOC4)c4c(N)n[nH]c4c3)nc2)c1 |
| 0.0034 µM | COc1ccc(F)c(S(=O)(=O)Nc2ccc(-c3cc(OCC4CNCCO4)c4cn[nH]c4n3)cc2)c1 (centres unmarked) |
| 0.0048 µM | COc1ccc(F)c(S(=O)(=O)Nc2ccc(-c3cc4c5c(n[nH]c5c3)NC(=O)CN4)cc2)c1 |
| 0.0171 µM | COc1ccc(F)c(S(=O)(=O)Nc2ccc(-c3cc(OC)c4c(N)n[nH]c4n3)cc2)c1 |
| 0.0023 µM | COc1ccc(F)c(S(=O)(=O)Nc2ccc(-c3cc(OCC4CNCCO4)c4c(N)n[nH]c4c3)cc2)c1 (centres unmarked) |
| 0.0018 µM | COc1ccc(Cl)c(S(=O)(=O)Nc2ccc(-c3cc(OCC4CNCCO4)c4cn[nH]c4c3)cc2)c1 (centres unmarked) |

Same assay, conditions: 1 mM ATP; read-out: Sgk1 (1 mM ATP)

| SMILES | IC50 |
| --- | --- |
| CCOc1cc(-c2ccc(NS(=O)(=O)c3cc(OC)ccc3F)cn2)cc2[nH]nc(N)c12 | 0.11 µM |
| COc1ccc(F)c(S(=O)(=O)Nc2ccc(-c3cc4c5c(n[nH]c5c3)NC(=O)C(C)(C)O4)cc2)c1 | 0.344 µM |
| COc1ccc(F)c(S(=O)(=O)Nc2ccc(-c3cc(OCCN(C)C)c4c(N)n[nH]c4c3)cc2)c1 | 0.02 µM |
| COc1ccc(F)c(S(=O)(=O)Nc2ccc(-c3cc(O[C@H]4CCOC4)c4c(N)n[nH]c4c3)nc2)c1 | 0.181 µM |
| COc1ccc(F)c(S(=O)(=O)Nc2ccc(-c3cc(C)c4c(N)n[nH]c4c3)cc2)c1 | 0.0499 µM |
| CCOc1cc(-c2ccc(NS(=O)(=O)c3cc(OC)ccc3F)cc2)nc2[nH]nc(N)c12 | 0.0082 µM |

Next, values leading:

| IC50 | SMILES |
| --- | --- |
| 0.0273 µM | COc1ccc(F)c(S(=O)(=O)Nc2cnc(-c3cc(OC)c4c(N)n[nH]c4c3)nc2)c1 |
| 0.0111 µM | COc1ccc(F)c(S(=O)(=O)Nc2ccc(-c3cc(OC)c4c(N)n[nH]c4c3)nc2)c1 |
| 0.187 µM | COc1ccc(F)c(S(=O)(=O)Nc2ccc(-c3cc(OCCN(C)C)c4c(N)n[nH]c4n3)cc2)c1 |
| 0.0103 µM | COc1ccc(F)c(S(=O)(=O)Nc2ccc(-c3cc(O[C@@H]4CCOC4)c4c(N)n[nH]c4c3)nc2)c1 |
| 0.0107 µM | COc1ccc(F)c(S(=O)(=O)Nc2ccc(-c3cc(OCC4CNCCO4)c4cn[nH]c4n3)cc2)c1 (centres unmarked) |
| 0.0126 µM | COc1ccc(F)c(S(=O)(=O)Nc2ccc(-c3cc4c5c(n[nH]c5c3)NC(=O)CN4)cc2)c1 |
| 0.112 µM | COc1ccc(F)c(S(=O)(=O)Nc2ccc(-c3cc(OC)c4c(N)n[nH]c4n3)cc2)c1 |
| 0.0039 µM | COc1ccc(F)c(S(=O)(=O)Nc2ccc(-c3cc(OCC4CNCCO4)c4c(N)n[nH]c4c3)cc2)c1 (centres unmarked) |
| 0.0319 µM | COc1ccc(Cl)c(S(=O)(=O)Nc2ccc(-c3cc(OCC4CNCCO4)c4cn[nH]c4c3)cc2)c1 (centres unmarked) |
